# According to US20230210999A1, “TARGETED PROTEASE DEGRADATION (TED) PLATFORM” (EUBULUS BIOTHERAPEUTICS INC., priority 2020, published 2023):
# Like-named read-outs stand apart in the source and are kept apart here.
# Key:
# Type in all cases: cell-based, human
# MV4;11 cells = assay: Cell proliferation experiment (Alamar blue, 72 h), MV4;11; settings: read-out: Inhibitory activity IC50 on MV4;11
# Protocol: (§1) Reagents: RPMI-1640 medium, McCoy's 5A medium, IMDM medium, MEM medium, L-15 medium, fetal bovine serum. Penicillin-Streptomycin double antibody, trypsin, etc., 2-mercaptoethanol, NEAA, pyruvate, etc.
# (§2) The cells were cultured in conventional ways, and the cells should be passed at least 2 generations before plating. Cells at the logarithmic growth phase were collected, prepared into single cell suspensions and counted. The concentration of cells was adjusted to the desired concentration, and cells were inoculated into a 96-well cell culture plate at 100 μl per well. 100 μL of complete medium of the test compound were added to each well, set up 2 duplicate wells for each concentration, and diluted with a 5-fold gradient, and continued to culture for 72 h. All cells were subjected to IC50 test for corresponding samples. The experimental results are shown in Test Example 4.
# (§3) The fluorescence intensity of each well was detected using the Alarm blue method, and IC50 was calculated.
# (§4) IC50 was calculated according to the following formula:
# (§5) Y=Max+(Min−Max)/[1+(X/IC50)×Slope]
# (§6) wherein Min, Max and Slope represent the minimum, maximum and slope respectively.
# Daudi cells = assay: Cell proliferation experiment, Daudi; settings: Daudi cells, read-out: Inhibitory activity IC50 on Daudi
# Protocol: as §1, §2, §3, §4, §5, §6
# NCIH82 cells = assay: Cell proliferation experiment, NCI-H82; settings: read-out: Inhibitory activity IC50 on NCI-H82
# Protocol: as §1, §2, §3, §4, §5, §6
# [1] = Homo sapiens, MV4-11, MV4;11 cells
# [2] = Homo sapiens, NCI-H82, NCI-H82 cells
smiles,measurement,setting,value
O=C1CCC(N2Cc3c(NC(=O)CCNCCOCCOCCn4cc([C@]5(Cc6cccc(Nc7nccs7)n6)CC[C@@H](Oc6cccc(Cl)c6F)CC5)nn4)cccc3C2=O)C(=O)N1 (stereo partly drawn) [UB-181003],IC50,MV4;11 cells; [1],0.1 to 1 µM
same,IC50,"Daudi cells; Homo sapiens, Daudi",> 1 µM
same,IC50,NCIH82 cells; [2],> 1 µM
O=C1CCC(N2Cc3cc(NC(=O)CCNCCOCCOCCn4cc(-c5ccc(Nc6ncc7c(n6)-c6ccc(Cl)cc6C(c6c(F)cccc6F)=NC7)cc5)nn4)ccc3C2=O)C(=O)N1 (stereo not drawn) [UB-180991],IC50,MV4;11 cells; [1],0.1 to 1 µM
same,IC50,"Daudi cells; Homo sapiens, Daudi",> 1 µM
same,IC50,NCIH82 cells; [2],> 1 µM
O=C1CCC(N2Cc3cc(NC(=O)CCCCCCCNCCn4cc(-c5ccc(Nc6ncc7c(n6)-c6ccc(Cl)cc6C(c6c(F)cccc6F)=NC7)cc5)nn4)ccc3C2=O)C(=O)N1 (stereo not drawn) [UB-180983],IC50,MV4;11 cells; [1],0.01 to 0.1 µM
same,IC50,"Daudi cells; Homo sapiens, Daudi",0.1 to 1 µM
same,IC50,NCIH82 cells; [2],0.1 to 1 µM
CCNC(=O)C#Cc1ccc2c(c1)NC(=O)/C2=C(\Nc1ccc(CNCCOCCOCCOCCC(=O)N[C@H](C(=O)N2C[C@H](O)C[C@H]2C(=O)NCc2ccc(-c3scnc3C)cc2)C(C)(C)C)cc1)c1ccccc1 [UB-180970],IC50,MV4;11 cells; [1],0.1 to 1 µM
same,IC50,"Daudi cells; Homo sapiens, Daudi",> 1 µM
same,IC50,NCIH82 cells; [2],> 1 µM
O=C1CCC(N2Cc3cc(NC(=O)CCCCCCCN[C@H]4CC[C@@H](n5cc(-c6ccc(Nc7ncc8c(n7)-c7ccc(Cl)cc7C(c7c(F)cccc7F)=NC8)cc6)nn5)CC4)ccc3C2=O)C(=O)N1 (stereo partly drawn) [UB-180989],IC50,MV4;11 cells; [1],> 1 µM
same,IC50,"Daudi cells; Homo sapiens, Daudi",> 1 µM
same,IC50,NCIH82 cells; [2],> 1 µM
CCNC(=O)C#Cc1ccc2c(c1)NC(=O)/C2=C(\Nc1ccc(CNCCOCCOCCC(=O)Nc2ccc3c(c2)CN(C2CCC(=O)NC2=O)C3=O)cc1)c1ccccc1 (stereo not drawn) [UB-180967],IC50,MV4;11 cells; [1],0.1 to 1 µM
same,IC50,"Daudi cells; Homo sapiens, Daudi",0.1 to 1 µM
same,IC50,NCIH82 cells; [2],> 1 µM
O=C1CCC(N2Cc3c(NC(=O)CCCCCCCCCN[C@H]4CC[C@@H](n5cc(-c6ccc(Nc7ncc8c(n7)-c7ccc(Cl)cc7C(c7c(F)cccc7F)=NC8)cc6)nn5)CC4)cccc3C2=O)C(=O)N1 (stereo partly drawn) [UB-180997],IC50,MV4;11 cells; MV4;11 cells,> 1 µM
same,IC50,Daudi cells,> 1 µM
same,IC50,NCIH82 cells; NCI-H82 cells,> 1 µM
O=C1CCC(N2Cc3cc(NC(=O)CNCCOCCOCCOCCn4cc(-c5ccc(Nc6ncc7c(n6)-c6ccc(Cl)cc6C(c6c(F)cccc6F)=NC7)cc5)nn4)ccc3C2=O)C(=O)N1 (stereo not drawn) [UB-180976],IC50,MV4;11 cells; [1],0.1 to 1 µM
same,IC50,"Daudi cells; Homo sapiens, Daudi",> 1 µM
same,IC50,NCIH82 cells; [2],> 1 µM
O=C1CCC(N2Cc3cc(NC(=O)CNCCOCCOCCOCCNC(=O)c4ccc(Nc5ncc6c(n5)-c5ccc(Cl)cc5C(c5c(F)cccc5F)=NC6)cc4)ccc3C2=O)C(=O)N1 (stereo not drawn) [UB-180954],IC50,MV4;11 cells; [1],0.1 to 1 µM
same,IC50,"Daudi cells; Homo sapiens, Daudi",> 1 µM
same,IC50,NCIH82 cells; [2],> 1 µM
O=C1CCC(N2Cc3cc(NC(=O)CNCCCOCCCCCn4cc([C@]5(Cc6cccc(Nc7nccs7)n6)CC[C@@H](Oc6cccc(Cl)c6F)CC5)nn4)ccc3C2=O)C(=O)N1 (stereo partly drawn) [UB-181009],IC50,MV4;11 cells; [1],0.1 to 1 µM
same,IC50,"Daudi cells; Homo sapiens, Daudi",> 1 µM
same,IC50,NCIH82 cells; [2],> 1 µM
O=C1CCC(N2Cc3c(NC(=O)CNCCCCOCCCCNC(=O)[C@]4(Cc5cccc(Nc6nccs6)n5)CC[C@@H](Oc5cccc(Cl)c5F)CC4)cccc3C2=O)C(=O)N1 (stereo partly drawn) [UB-181013],IC50,MV4;11 cells; [1],0.1 to 1 µM
same,IC50,"Daudi cells; Homo sapiens, Daudi",> 1 µM
same,IC50,NCIH82 cells; [2],> 1 µM
O=C1CCC(N2Cc3cc(NC(=O)CCOCCOCCN[C@H]4CC[C@@H](n5cc(-c6ccc(Nc7ncc8c(n7)-c7ccc(Cl)cc7C(c7c(F)cccc7F)=NC8)cc6)nn5)CC4)ccc3C2=O)C(=O)N1 (stereo partly drawn) [UB-180981],IC50,MV4;11 cells; [1],> 1 µM
same,IC50,"Daudi cells; Homo sapiens, Daudi",> 1 µM
same,IC50,NCIH82 cells; [2],> 1 µM
O=C1CCC(N2Cc3c(C#CCCNCCOCCn4cc(-c5ccc(Nc6ncc7c(n6)-c6ccc(Cl)cc6C(c6c(F)cccc6F)=NC7)cc5)nn4)cccc3C2=O)C(=O)N1 (stereo not drawn) [UB-180944],IC50,MV4;11 cells; [1],0.1 to 1 µM
same,IC50,"Daudi cells; Homo sapiens, Daudi",> 1 µM
same,IC50,NCIH82 cells; [2],> 1 µM
O=C1CCC(N2Cc3cc(NC(=O)CCOCCOCCOCCNC(=O)c4ccc(Nc5ncc6c(n5)-c5ccc(Cl)cc5C(c5c(F)cccc5F)=NC6)cc4)ccc3C2=O)C(=O)N1 (stereo not drawn) [UB-180947],IC50,MV4;11 cells; [1],0.01 to 0.1 µM
same,IC50,"Daudi cells; Homo sapiens, Daudi",0.1 to 1 µM
same,IC50,NCIH82 cells; [2],> 1 µM
O=C1CCC(N2Cc3cc(C#CCCNCCOCCOCCOCCn4cc([C@]5(Cc6cccc(Nc7nccs7)n6)CC[C@@H](Oc6cccc(Cl)c6F)CC5)nn4)ccc3C2=O)C(=O)N1 (stereo partly drawn) [UB-180973],IC50,MV4;11 cells; [1],0.1 to 1 µM
same,IC50,"Daudi cells; Homo sapiens, Daudi",> 1 µM
same,IC50,NCIH82 cells; [2],> 1 µM
O=C1CCC(N2Cc3c(C#CCCNCCOCCOCCn4cc(-c5ccc(Nc6ncc7c(n6)-c6ccc(Cl)cc6C(c6c(F)cccc6F)=NC7)cc5)nn4)cccc3C2=O)C(=O)N1 (stereo not drawn) [UB-181027],IC50,MV4;11 cells; [1],> 1 µM
same,IC50,"Daudi cells; Homo sapiens, Daudi",> 1 µM
same,IC50,NCIH82 cells; [2],> 1 µM
O=C1CCC(N2Cc3cc(NC(=O)CCOCCOCCNCCNC(=O)[C@]4(Cc5cccc(Nc6nccs6)n5)CC[C@@H](Oc5cccc(Cl)c5F)CC4)ccc3C2=O)C(=O)N1 (stereo partly drawn) [UB-181018],IC50,MV4;11 cells; [1],> 1 µM
same,IC50,"Daudi cells; Homo sapiens, Daudi",> 1 µM
same,IC50,NCIH82 cells; [2],> 1 µM
NC(COCCCCCCCC(=O)Nc1ccc2c(c1)CN(C1CCC(=O)NC1=O)C2=O)Cn1cc(-c2ccc(Nc3ncc4c(n3)-c3ccc(Cl)cc3C(c3c(F)cccc3F)=NC4)cc2)nn1 (stereo not drawn) [UB-181007],IC50,MV4;11 cells; [1],0.1 to 1 µM
same,IC50,"Daudi cells; Homo sapiens, Daudi",0.1 to 1 µM
same,IC50,NCIH82 cells; [2],> 1 µM
O=C1CCC(N2Cc3cc(C#CCCNCCOCCOCCNC(=O)c4ccc(Nc5ncc6c(n5)-c5ccc(Cl)cc5C(c5c(F)cccc5F)=NC6)cc4)ccc3C2=O)C(=O)N1 (stereo not drawn) [UB-181029],IC50,MV4;11 cells; [1],> 1 µM
same,IC50,"Daudi cells; Homo sapiens, Daudi",> 1 µM
same,IC50,NCIH82 cells; [2],> 1 µM
O=C1CCC(N2Cc3c(NC(=O)CCCCCCCN[C@H]4CC[C@@H](n5cc(-c6ccc(Nc7ncc8c(n7)-c7ccc(Cl)cc7C(c7c(F)cccc7F)=NC8)cc6)nn5)CC4)cccc3C2=O)C(=O)N1 (stereo partly drawn) [UB-180988],IC50,MV4;11 cells; [1],> 1 µM
same,IC50,"Daudi cells; Homo sapiens, Daudi",> 1 µM
same,IC50,NCIH82 cells; [2],> 1 µM
O=C1CCC(N2Cc3c(NC(=O)CCCCCCCCCNCCn4cc([C@]5(Cc6cccc(Nc7nccs7)n6)CC[C@@H](Oc6cccc(Cl)c6F)CC5)nn4)cccc3C2=O)C(=O)N1 (stereo partly drawn) [UB-181002],IC50,MV4;11 cells; [1],> 1 µM
same,IC50,"Daudi cells; Homo sapiens, Daudi",> 1 µM
same,IC50,NCIH82 cells; [2],> 1 µM
O=C1CCC(N2Cc3cc(NC(=O)CNCCCOCCOCCn4cc(-c5ccc(Nc6ncc7c(n6)-c6ccc(Cl)cc6C(c6c(F)cccc6F)=NC7)cc5)nn4)ccc3C2=O)C(=O)N1 (stereo not drawn) [UB-181020],IC50,MV4;11 cells; [1],0.1 to 1 µM
same,IC50,"Daudi cells; Homo sapiens, Daudi",> 1 µM
same,IC50,NCIH82 cells; [2],> 1 µM
O=C1CCC(N2Cc3c(C#CCCOCCN[C@H]4CC[C@@H](n5cc(-c6ccc(Nc7ncc8c(n7)-c7ccc(Cl)cc7C(c7c(F)cccc7F)=NC8)cc6)nn5)CC4)cccc3C2=O)C(=O)N1 (stereo partly drawn) [UB-180966],IC50,MV4;11 cells; [1],> 1 µM
same,IC50,"Daudi cells; Homo sapiens, Daudi",> 1 µM
same,IC50,NCIH82 cells; [2],> 1 µM
CCNC(=O)C#Cc1ccc2c(c1)NC(=O)/C2=C(\Nc1ccc(CNCCOCCOCCOCCOCC(=O)Nc2cccc3c2CN(C2CCC(=O)NC2=O)C3=O)cc1)c1ccccc1 (stereo not drawn) [UB-180962],IC50,MV4;11 cells; [1],0.1 to 1 µM
same,IC50,"Daudi cells; Homo sapiens, Daudi",> 1 µM
same,IC50,NCIH82 cells; [2],> 1 µM
O=C1CCC(N2Cc3cc(NC(=O)CCOCCOCCOCCNC(=O)[C@]4(Cc5cccc(Nc6nccs6)n5)CC[C@@H](Oc5cccc(Cl)c5F)CC4)ccc3C2=O)C(=O)N1 (stereo partly drawn) [UB-180948],IC50,MV4;11 cells; [1],0.01 to 0.1 µM
same,IC50,"Daudi cells; Homo sapiens, Daudi",> 1 µM
same,IC50,NCIH82 cells; [2],> 1 µM
CCNC(=O)C#Cc1ccc2c(c1)NC(=O)/C2=C(\Nc1ccc(CNCCOCCOCCOCCOCCC(=O)Nc2cccc3c2CN(C2CCC(=O)NC2=O)C3=O)cc1)c1ccccc1 (stereo not drawn) [UB-180956],IC50,MV4;11 cells; [1],0.1 to 1 µM
same,IC50,"Daudi cells; Homo sapiens, Daudi",> 1 µM
same,IC50,NCIH82 cells; [2],> 1 µM
O=C1CCC(N2Cc3c(C#CCCNCCOCCOCCNC(=O)c4ccc(Nc5ncc6c(n5)-c5ccc(Cl)cc5C(c5c(F)cccc5F)=NC6)cc4)cccc3C2=O)C(=O)N1 (stereo not drawn) [UB-181028],IC50,MV4;11 cells; [1],0.1 to 1 µM
same,IC50,"Daudi cells; Homo sapiens, Daudi",> 1 µM
same,IC50,NCIH82 cells; [2],> 1 µM
O=C1CCC(N2Cc3c(NC(=O)CCNCCCOCCCCNC(=O)[C@]4(Cc5cccc(Nc6nccs6)n5)CC[C@@H](Oc5cccc(Cl)c5F)CC4)cccc3C2=O)C(=O)N1 (stereo partly drawn) [UB-181030],IC50,MV4;11 cells; [1],> 1 µM
same,IC50,"Daudi cells; Homo sapiens, Daudi",> 1 µM
same,IC50,NCIH82 cells; [2],> 1 µM
CCNC(=O)C#Cc1ccc2c(c1)NC(=O)/C2=C(\Nc1ccc(CNCCOCCOCCOCCC(=O)Nc2ccc3c(c2)CN(C2CCC(=O)NC2=O)C3=O)cc1)c1ccccc1 (stereo not drawn) [UB-180972],IC50,MV4;11 cells; [1],0.01 to 0.1 µM
same,IC50,"Daudi cells; Homo sapiens, Daudi",0.1 to 1 µM
same,IC50,NCIH82 cells; [2],0.1 to 1 µM
O=C1CCC(N2Cc3cc(NC(=O)CNCCCOCCCCCn4cc(-c5ccc(Nc6ncc7c(n6)-c6ccc(Cl)cc6C(c6c(F)cccc6F)=NC7)cc5)nn4)ccc3C2=O)C(=O)N1 (stereo not drawn) [UB-181008],IC50,MV4;11 cells; [1],0.1 to 1 µM
same,IC50,"Daudi cells; Homo sapiens, Daudi",0.1 to 1 µM
same,IC50,NCIH82 cells; [2],> 1 µM
